Results: patent US20240109868A1, “EP300/CBP MODULATOR, PREPARATION METHOD THEREFOR AND USE THEREOF” (Miracure Biotechnology Limited, priority 2022, published 2024)

Columns and labels:
vCap Cell = assay: vCap cell growth inhibition, CellTiter-Glo, 72 h; format: cell-based; conditions: vCap cells, 72 h culture
Outline: (§1)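 Cells seeded at 5×10^3/well overnight in RPMI-1640/10% FBS, then exposed to compound (0.5% DMSO final) for 72 h at 37 °C.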

22Rv1 Cell = assay: 22RV1 cell growth inhibition, CellTiter-Glo, 72 h; format: cell-based; conditions: 22RV1 cells, 72 h culture
Outline: as §1

Row | SMILES | IC50 (vCap Cell; Homo sapiens, VCaP, 72 h) | IC50 (22Rv1 Cell; Homo sapiens, 22Rv1, 72 h) | IC50 (vCap Cell) | IC50 (22Rv1 Cell)
1 | CNC(=O)N1Cc2cc(-c3ccc(OC)cc3)cc(N3CCCc4cc(-c5cnn(C)c5)c(C(F)F)cc43)c2C1 [Compound M001121] | > 1000 nM | > 1000 nM | – | –
2 | CNC(=O)N1Cc2cc(-c3ccn(C)c(=O)c3)cc(N3CCCc4cc(-c5cnn(C)c5)c(C(F)F)cc43)c2C1 [Compound M001122] | > 1000 nM | > 1000 nM | – | –
3 | CNC(=O)N1CCc2cc(C3CCN(C)C(=O)C3)cc(N3CCCc4cc(-c5cnn(C)c5)c(C(F)F)cc43)c2C1 (centres unmarked) [Compound M001124, 8-(7-(difluoromethyl)-6-(1-methyl-1H-pyrazol-4-yl)-3,4-dihydroquinolin-1(2H)-yl)-N-methyl-6-(1-methyl-2-oxopiperidin-4-yl)-3,4H-dihydroisoquinoline-2(1H)-carboxamide] | < 1000 nM | < 1000 nM | – | –
4 | CNC(=O)N1C2CCC1CC(c1cc3c(c(N4CCCc5cc(-c6cnn(C)c6)c(C(F)F)cc54)c1)CN(C(C)=O)C3)C2 (centres unmarked) [Compound M001129] | < 1000 nM | < 1000 nM | – | –
5 | COC(=O)N1C2CCC1CC(c1cc3c(c(N4CCCc5cc(-c6cnn(C)c6)c(C(F)F)cc54)c1)CN(C(C)=O)C3)C2 (centres unmarked) [Compound M001132] | < 1000 nM | > 1000 nM | – | –
6 | CNC(=O)N1Cc2cc(C3CC4CCC(C3)N4C(=O)OC)cc(N3CCCc4cc(-c5cnn(C)c5)c(C(F)F)cc43)c2C1 (centres unmarked) [Compound M001137] | > 1000 nM | > 1000 nM | – | –
7 | CC(=O)N1CCc2cc(C3CCNC(=O)C3)cc(N3CCCc4cc(-c5cnn(C)c5)c(C(F)F)cc43)c2C1 (centres unmarked) [Compound M001142] | > 1000 nM | > 1000 nM | – | –
8 | CC(=O)N1CCc2cc(C3CCN(C)C(=O)C3)cc(N3CCCc4cc(-c5cnn(C)c5)c(C(F)F)cc43)c2C1 (centres unmarked) [Compound M001143] | > 1000 nM | > 1000 nM | – | –
9 | CC(=O)N1CCc2cc(-c3ccn(C)c(=O)c3)cc(N3CCCc4cc(-c5cnn(C)c5)c(C(F)F)cc43)c2C1 [Compound M001144] | > 1000 nM | > 1000 nM | – | –
10 | CC(=O)N1CCc2cc(-c3cc[nH]c(=O)c3)cc(N3CCCc4cc(-c5cnn(C)c5)c(C(F)F)cc43)c2C1 [Compound M001153] | > 1000 nM | > 1000 nM | – | –
11 | CC(=O)N1Cc2cc(-c3cc[nH]c(=O)c3)cc(N3CCCc4cc(-c5cnn(C)c5)c(C(F)F)cc43)c2C1 [Compound M001156] | > 1000 nM | > 1000 nM | – | –
12 | CNC(=O)N1Cc2cc(C3CCN(C(C)=O)CC3)cc(N3CCCc4cc(-c5cnn(C)c5)c(C(F)F)cc43)c2C1 [Compound M001161] | < 1000 nM | > 1000 nM | – | –
13 | CNC(=O)N1CCc2cc(C3CCC(=O)N(C)C3)cc(N3CCCc4cc(-c5cnn(C)c5)c(C(F)F)cc43)c2C1 (centres unmarked) [Compound M001170] | < 1000 nM | < 1000 nM | – | –
14 | CNC(=O)N1CCc2cc([C@H]3CC[C@H](O)CC3)cc(N3CCCc4cc(-c5cnn(C)c5)c(C(F)F)cc43)c2C1 [Compound M001181] | > 1000 nM | > 1000 nM | – | –
15 | CCN1CCC(c2cc3c(c(N4CCCc5cc(-c6cnn(C)c6)c(C(F)F)cc54)c2)CN(C(=O)NC)CC3)CC1=O (centres unmarked) [Compound M001186] | < 1000 nM | < 1000 nM | – | –
16 | CNC(=O)N1CCc2cc(C3CCN(CCOC)C(=O)C3)cc(N3CCCc4cc(-c5cnn(C)c5)c(C(F)F)cc43)c2C1 (centres unmarked) [Compound M001188] | < 1000 nM | < 1000 nM | – | –
17 | CCN1CCC(c2cc3c(c(N4CCCc5cc(-c6cnn(C)c6)c(C(F)F)cc54)c2)CN(C(C)=O)C3)CC1=O (centres unmarked) [Compound M001189] | < 1000 nM | < 1000 nM | – | –
18 | CC(=O)N1Cc2cc([C@H]3CC[C@H](O)CC3)cc(N3CCCc4cc(-c5cnn(C)c5)c(C(F)F)cc43)c2C1 [Compound M001194] | < 1000 nM | > 1000 nM | – | –
19 | COC1CCC(c2cc3c(c(N4CCCc5cc(-c6cnn(C)c6)c(C(F)F)cc54)c2)CN(C(C)=O)CC3)CC1 (centres unmarked) [Compound M001196] | > 1000 nM | > 1000 nM | – | –
20 | CNC(=O)N1CCc2cc(C3CCC(OC)CC3)cc(N3CCCc4cc(-c5cnn(C)c5)c(C(F)F)cc43)c2C1 (centres unmarked) [Compound M001199] | – | – | > 1000 nM | > 1000 nM
21 | CNC(=O)N1Cc2cc(C3CCC(OC)CC3)cc(N3CCCc4cc(-c5cnn(C)c5)c(C(F)F)cc43)c2C1 (centres unmarked) [Compound M001200] | > 1000 nM | > 1000 nM | – | –
22 | COC(=O)N1CCc2cc(Cl)cc(N3CCCc4cc(-c5cnn(C)c5)c(C(F)F)cc43)c2C1 [Compound M001201] | > 1000 nM | > 1000 nM | – | –
23 | COC(=O)N1Cc2cc(C3CCC(OC)CC3)cc(N3CCCc4cc(-c5cnn(C)c5)c(C(F)F)cc43)c2C1 (centres unmarked) [Compound M001204] | – | – | > 1000 nM | > 1000 nM
24 | CC(=O)N1CCc2cc(Cl)cc(N3CCCc4cc(-c5cnn(C)c5)c(C(F)F)cc43)c2C1 [Compound M001208] | > 1000 nM | > 1000 nM | – | –
25 | CNC(=O)N1CCc2cc(Cl)cc(N3CCCc4cc(-c5cnn(C)c5)c(C(F)F)cc43)c2C1 [Compound M001209] | > 1000 nM | > 1000 nM | – | –
26 | COC(=O)N1CCCc2cccc(N3CCCc4cc(-c5cnn(C)c5)c(C(F)F)cc43)c2C1 [Compound M001210] | > 1000 nM | > 1000 nM | – | –
27 | CNC(=O)N1CCCc2cccc(N3CCCc4cc(-c5cnn(C)c5)c(C(F)F)cc43)c2C1 [Compound M001211] | > 1000 nM | > 1000 nM | – | –

Further lines, results first:

Row | IC50 (vCap Cell; Homo sapiens, VCaP, 72 h) | IC50 (22Rv1 Cell; Homo sapiens, 22Rv1, 72 h) | IC50 (vCap Cell) | IC50 (22Rv1 Cell) | SMILES
28 | > 1000 nM | > 1000 nM | – | – | CNC(=O)N1Cc2cc(C3CCNC(=O)C3)cc(N3CCCc4cc(-c5cnn(C)c5)c(C(F)F)cc43)c2C1 (centres unmarked) [Compound M001118]
29 | > 1000 nM | > 1000 nM | – | – | CNC(=O)N1Cc2cc(C3CCN(C)C(=O)C3)cc(N3CCCc4cc(-c5cnn(C)c5)c(C(F)F)cc43)c2C1 (centres unmarked) [Compound M001119]
30 | > 1000 nM | > 1000 nM | – | – | CNC(=O)N1Cc2cc(-c3ccccc3)cc(N3CCCc4cc(-c5cnn(C)c5)c(C(F)F)cc43)c2C1 [Compound M001120]
31 | < 1000 nM | > 1000 nM | – | – | CNC(=O)N1CCc2cc(C3CCNC(=O)C3)cc(N3CCCc4cc(-c5cnn(C)c5)c(C(F)F)cc43)c2C1 (centres unmarked) [Compound M001123]
32 | < 1000 nM | > 1000 nM | – | – | CNC(=O)N1CCc2cc(-c3ccn(C)c(=O)c3)cc(N3CCCc4cc(-c5cnn(C)c5)c(C(F)F)cc43)c2C1 [Compound M001125]
33 | < 1000 nM | < 1000 nM | – | – | CC(=O)N1Cc2cc(C3CCN(C)C(=O)C3)cc(N3CCCc4cc(-c5cnn(C)c5)c(C(F)F)cc43)c2C1 (centres unmarked) [Compound M001127]
34 | > 1000 nM | > 1000 nM | – | – | CC(=O)N1Cc2cc(-c3ccn(C)c(=O)c3)cc(N3CCCc4cc(-c5cnn(C)c5)c(C(F)F)cc43)c2C1 [Compound M001128]
35 | > 1000 nM | > 1000 nM | – | – | CNC(=O)N1Cc2cc(-c3cc[nH]c(=O)c3)cc(N3CCCc4cc(-c5cnn(C)c5)c(C(F)F)cc43)c2C1 [Compound M001155]
36 | > 1000 nM | > 1000 nM | – | – | CNC(=O)N1Cc2cc(C3CCN(C(=O)C4CC4)CC3)cc(N3CCCc4cc(-c5cnn(C)c5)c(C(F)F)cc43)c2C1 [Compound M001162]
37 | > 1000 nM | > 1000 nM | – | – | CNC(=O)N1Cc2cc(C3CCN(C(=O)c4ccccc4)CC3)cc(N3CCCc4cc(-c5cnn(C)c5)c(C(F)F)cc43)c2C1 [Compound M001163]
38 | > 1000 nM | > 1000 nM | – | – | CN1CCC(c2cc3c(c(N4CCCc5cc(-c6cnn(C)c6)c(C(F)F)cc54)c2)CN(C(=O)C2CC2)C3)CC1=O (centres unmarked) [Compound M001164]
39 | < 1000 nM | < 1000 nM | – | – | CC(=O)N1Cc2cc(C3CCN(C(=O)c4cn(C)cn4)CC3)cc(N3CCCc4cc(-c5cnn(C)c5)c(C(F)F)cc43)c2C1 [Compound M001176]
40 | > 1000 nM | > 1000 nM | – | – | CC(=O)N1CCc2cc([C@H]3CC[C@@H](O)CC3)cc(N3CCCc4cc(-c5cnn(C)c5)c(C(F)F)cc43)c2C1 [Compound M001178]
41 | > 1000 nM | > 1000 nM | – | – | CC(=O)N1CCc2cc([C@H]3CC[C@H](O)CC3)cc(N3CCCc4cc(-c5cnn(C)c5)c(C(F)F)cc43)c2C1 [Compound M001179]
42 | < 1000 nM | > 1000 nM | – | – | CNC(=O)N1CCc2cc(C3CCC(O)CC3)cc(N3CCCc4cc(-c5cnn(C)c5)c(C(F)F)cc43)c2C1 (centres unmarked) [Compound M001180]
43 | < 1000 nM | > 1000 nM | – | – | CNC(=O)N1CCc2cc(C3CCOCC3)cc(N3CCCc4cc(-c5cnn(C)c5)c(C(F)F)cc43)c2C1 [Compound M001184]
44 | > 1000 nM | > 1000 nM | – | – | CNC(=O)N1Cc2cc([C@H]3CC[C@@H](O)CC3)cc(N3CCCc4cc(-c5cnn(C)c5)c(C(F)F)cc43)c2C1 [Compound M001192]
45 | > 1000 nM | > 1000 nM | – | – | CNC(=O)N1Cc2cc([C@H]3CC[C@H](O)CC3)cc(N3CCCc4cc(-c5cnn(C)c5)c(C(F)F)cc43)c2C1 [Compound M001193]
46 | < 1000 nM | > 1000 nM | – | – | CC(=O)N1Cc2cc([C@H]3CC[C@@H](O)CC3)cc(N3CCCc4cc(-c5cnn(C)c5)c(C(F)F)cc43)c2C1 [Compound M001195]
47 | – | – | > 1000 nM | > 1000 nM | COC1CCC(c2cc3c(c(N4CCCc5cc(-c6cnn(C)c6)c(C(F)F)cc54)c2)CN(C(C)=O)CC3)CC1 (centres unmarked) [Compound M001197]
48 | > 1000 nM | > 1000 nM | – | – | CNC(=O)N1CCc2cc(C3CCC(OC)CC3)cc(N3CCCc4cc(-c5cnn(C)c5)c(C(F)F)cc43)c2C1 (centres unmarked) [Compound M001198]
49 | > 1000 nM | > 1000 nM | – | – | COC(=O)N1Cc2cc(C3CCC(OC)CC3)cc(N3CCCc4cc(-c5cnn(C)c5)c(C(F)F)cc43)c2C1 (centres unmarked) [Compound M001203]
50 | > 1000 nM | > 1000 nM | – | – | CC(=O)N1CCc2cccc(N3CCCc4cc(-c5cnn(C)c5)c(C(F)F)cc43)c2C1 [Compound M001207]
51 | > 1000 nM | > 1000 nM | – | – | CC(=O)N1CCCc2cccc(N3CCCc4cc(-c5cnn(C)c5)c(C(F)F)cc43)c2C1 [Compound M001212]
52 | > 1000 nM | > 1000 nM | – | – | Cn1cc(-c2cc3c(cc2C(F)F)N(c2cccc4c2CN(C(N)=O)CCC4)CCC3)cn1 [Compound M001213]
